Laboratory results: US20060111341A1, “Use of galanthamine and the derivatives thereof in the production of medicaments” (priority 2003, published 2006)
Read-outs that look alike come from different tables or passages of the source.

Assays:
[1] = system: medicament-induced delirium; conditions: one patient, WO 00/32185 A; cited from earlier work
post-operative delirium = experiment: Prospective clinical study for the prevention of post-operative delirium (Confusion Assessment Method); assay type: in vivo, patients
Excerpt: In order to be able to test the effect of the pharmaceutical forms of the invention on patients, a prospective study was accomplished for the prevention of post-operative delirium at five Austrian orthopedic hospitals (two in Vienna, and one each in Linz, Graz and Krems) and all together 229 patients, who underwent hip replacement and/or combined planned surgical intervention for implantation were part of the study.
Hip/Knee endoprosthesis. The patients of the group were given in the evening following the surgical intervention (day 0) 8 mg galanthamine HCl, then on the days 1 to 4 in each case 4 mg in the morning and at noon and 8 mg in the evening, i.e., 16 mg t.i.d. to the fifth day. […], the dose was reduced to 8 mg b.i.d., starting from that day until the 6th day when no more treatment took place.
For the determination of the effectiveness with the help of the “Confusion Assessment Method” (Lit.14) 155 patients could be consulted. In the group of placebos 7 patients (8, 5%) developed an post-operative delirium, in the galanthamine group only one patient (1, 4%) developed post-operative delirium, which corresponds to a statistically significant difference (p=0, 044).

Acetylcholinesterase [2] = target: T1, Acetylcholinesterase (Homo sapiens, UniProt P22303); experiment: biochemical
T1 sequence (P22303 32-614): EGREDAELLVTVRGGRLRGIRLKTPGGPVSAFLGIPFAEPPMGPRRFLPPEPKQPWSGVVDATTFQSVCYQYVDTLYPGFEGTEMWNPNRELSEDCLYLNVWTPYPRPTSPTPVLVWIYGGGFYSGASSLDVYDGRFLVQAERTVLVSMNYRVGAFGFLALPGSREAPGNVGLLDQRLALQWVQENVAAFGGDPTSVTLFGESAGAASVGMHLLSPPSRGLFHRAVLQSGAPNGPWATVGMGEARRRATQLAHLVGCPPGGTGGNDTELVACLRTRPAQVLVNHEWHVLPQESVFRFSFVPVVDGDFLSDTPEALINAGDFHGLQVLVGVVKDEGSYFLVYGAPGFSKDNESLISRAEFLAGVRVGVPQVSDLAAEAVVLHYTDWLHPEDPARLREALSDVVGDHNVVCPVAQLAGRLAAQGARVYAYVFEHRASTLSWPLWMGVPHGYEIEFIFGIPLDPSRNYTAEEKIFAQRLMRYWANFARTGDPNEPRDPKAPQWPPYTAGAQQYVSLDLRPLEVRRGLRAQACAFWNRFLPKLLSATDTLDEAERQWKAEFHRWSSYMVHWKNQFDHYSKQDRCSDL

Butyrylcholinesterase = Butyrylcholinesterase (Homo sapiens, UniProt P06276); experiment: biochemical
Chain of Butyrylcholinesterase (P06276 29-602): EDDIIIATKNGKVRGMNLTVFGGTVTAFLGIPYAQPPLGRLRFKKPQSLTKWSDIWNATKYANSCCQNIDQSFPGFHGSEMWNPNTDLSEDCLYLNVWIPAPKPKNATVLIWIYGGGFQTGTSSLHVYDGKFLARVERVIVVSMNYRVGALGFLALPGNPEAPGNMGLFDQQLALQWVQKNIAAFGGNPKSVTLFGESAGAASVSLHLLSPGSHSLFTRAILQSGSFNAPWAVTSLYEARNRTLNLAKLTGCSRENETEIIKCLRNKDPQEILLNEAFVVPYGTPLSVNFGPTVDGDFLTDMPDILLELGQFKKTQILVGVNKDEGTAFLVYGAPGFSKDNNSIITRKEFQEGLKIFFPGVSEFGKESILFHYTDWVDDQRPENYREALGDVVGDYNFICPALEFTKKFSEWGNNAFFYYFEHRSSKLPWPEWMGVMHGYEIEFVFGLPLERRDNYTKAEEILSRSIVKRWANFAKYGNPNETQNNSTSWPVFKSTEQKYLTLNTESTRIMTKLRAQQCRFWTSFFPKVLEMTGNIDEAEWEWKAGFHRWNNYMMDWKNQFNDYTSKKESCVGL

Acetylcholinesterase [3] = target: T1, Acetylcholinesterase

Row | SMILES | IC50 (Acetylcholinesterase [2]) [µM] | IC50 (Butyrylcholinesterase) [µM] | other results
1 | CCN(C)C(=O)Oc1cccc([C@H](C)N(C)C)c1 [rivastigmine] |  |  | treatment of delirium after lithium intoxication [1]: successfully treated
2 | COc1ccc2c3c1O[C@H]1C[C@@H](O)C=C[C@@]31CCN(C)C2 [galanthamine] |  |  | patients who developed post-operative delirium (number) (post-operative delirium; hip/knee endoprosthesis patients, oral galanthamine day 0 to 5, Confusion Assessment Method, 155 patients evaluated, placebo 7 patients): one; improvement of the symptoms of acute POD (post-operative delirium; oral administration, patients with limited cognitive ability with acute POD): unexpected and large improvement of the symptoms; observed side effects of galanthamine administration (post-operative delirium; oral administration, post-operative patients): very small; patients who developed post-operative delirium (percent) (post-operative delirium; po, 0 h): 1, 4%
3 | COc1cc(C)c2c3c1OC1C[C@H](O)C=CC31CC[N+](C)(Cc1ccccc1)C2 (mixture of isomers) [Nr 106] | > 100 | 3 | 
4 | COc1cc(Br)c2c3c1OC1C[C@@H](O)C=CC31CCN(CC(N)=O)C2 (mixture of isomers) [Nr 27] | > 100 | 15 | 
5 | COc1cc(C)c2c3c1OC1C[C@@H](O)C=CC31CCN(CCN1CCOCC1)C2 (mixture of isomers) [Nr 65] | > 100 | 5.2 | 
6 | CCOC(=O)/C=C/N1CCC23C=C[C@H](O)CC2Oc2c(OC)ccc(c23)C1 (mixture of isomers) [Nr 110] | 50 | > 100 | 
7 | COc1ccc2c3c1O[C@H]1C[C@@H](O)C=C[C@@]31CCN(CCCN1CC3CC1CN3c1ccc(F)cc1)C2 (some centres unmarked) [Nr 142] | 3 | 2.4 | 
8 | COc1ccc2c3c1O[C@H]1C[C@@H](OC(=S)Nc4ccccc4)C=C[C@@]31CCN(C)C2 [Nr 179] | 51 | 30 | 
9 | CN1CC[C@@]23C=C[C@H](O)C[C@@H]2Oc2c(Oc4ccccc4)ccc(c23)C1 [Nr 118] | 21 | 3.4 | 
10 | COc1ccc2c3c1O[C@H]1C[C@@H](O)C=C[C@@]31CCN(C(=O)NC(C)C)C2 [Nr 114] | 2.6 | 10 | 
11 | COc1ccc2c3c1OC1C[C@@H](O)C=CC31CCN(C(=O)Nc1ccc3ccccc3c1)C2 (mixture of isomers) [Nr 88] | 36 | > 100 | 
12 | COc1ccc2c3c1O[C@@H]1C[C@H](O)C=C[C@]31CCN(CCCN1CCCCC1)C2 [Nr 153] | 9 | 23 | 
13 | CNC(=S)N1CC[C@@]23C=C[C@H](O)C[C@@H]2Oc2c(OC)ccc(c23)C1 [Nr 129] | 18.5 | 63 | 
14 | COc1cc(Br)c2c3c1OC1C[C@@H](O)C=CC31CCN(CCC#N)C2 (mixture of isomers) [Nr 72] | > 100 | 43 | 
15 | COc1ccc2c3c1O[C@H]1C[C@@H](O)C=C[C@@]31CCN(c1ccccc1)C2 [Nr 123] | 0.5 | 0.24 | 
16 | COc1ccc2c3c1O[C@H]1C[C@@H](O)C=C[C@@]31CCN(C(=O)Nc1cccc3ccccc13)C2 [Nr 267] | 70 | > 100 | 
17 | COc1ccc2c3c1OC1C[C@@H](O)C=CC31CCN(C(=O)NC(C)C)C2 (mixture of isomers) [Nr 75] | 4.2 | > 100 | 
18 | CCCCNC(=O)O[C@H]1C=C[C@@]23CCN(C)Cc4ccc(OC)c(c42)O[C@H]3C1 [Nr 1] | > 100 | 4.8 | 
19 | COc1cc(N(C)C)c2c3c1O[C@H]1C[C@@H](O)C=C[C@@]31CCN(C)C2 [Nr 56] | > 100 | 0.47 | 

Row | SMILES | IC50 (Acetylcholinesterase [2]) [µM] | IC50 (Butyrylcholinesterase) [µM] | other results
20 | COc1cc(Br)c2c(c1O)C13C=C[C@@H](O)CC1N(CC3)C2 (mixture of isomers) [Nr 14] | > 100 | 18 | 
21 | COc1ccc2c3c1O[C@H]1C[C@@H](O)C=C[C@@]31CCN(CN(NC(=O)OC(C)(C)C)C(=O)OC(C)(C)C)C2 [Nr 160] | 3.6 | 20 | 
22 | COc1ccc2c3c1O[C@H]1C[C@@H](O)C=C[C@@]31CC[N+](C)=C2 [Nr 127] | 0.3 | 1.5 | 
23 | COC(=O)/C=C(\C(=O)OC)N1CCC23C=C[C@H](O)CC2Oc2c(OC)ccc(c23)C1 (mixture of isomers) [Nr 108] | 140 | 80 | 
24 | COc1ccc2c3c1O[C@H]1C[C@@H](O)C=C[C@@]31CCN(C1CCN(C(=O)c3ccccc3)CC1)C2 [Nr 148] | 24 | 3 | 
25 | COc1cc(C)c2c3c1OC1C[C@@H](O)C=CC31CCN(C)C2C#N (mixture of isomers) [Nr 145] | 80 | > 100 | 
26 | COc1ccc2c3c1OC1C[C@@H](O)C=CC31CCN(c1ncccn1)C2 (mixture of isomers) [Nr 85] | 38 | 30 | 
27 | CCN(CC)c1nccc(N2CCC34C=C[C@H](O)CC3Oc3c(OC)ccc(c34)C2)n1 (mixture of isomers) [Nr 97] | 25 | > 100 | 
28 | COc1ccc2c3c1OC1C/C(=N/NC(N)=O)C=CC31CCN(C)C2 (racemic) [Nr 32] | > 100 | 20 | 
29 | CCOC(=O)C(=O)N1CCC23C=C[C@H](O)CC2Oc2c(OC)cc(Br)c(c23)C1 (mixture of isomers) [Nr 20] | 32 | 11 | 
30 | COc1ccc2c3c1OC1C[C@@H](O)C=CC31CCN(C(=O)N[C@H](C)c1ccccc1)C2 (mixture of isomers) [Nr 112] | 30 | > 100 | 
31 | COc1ccc2c3c1OC1C[C@@H](O)C=CC31CCN(CCO)C2 (mixture of isomers) [Nr 34] | 14 | 26 | 
32 | CCCCCCN1CCC23C=C[C@H](O)CC2Oc2c(OC)cc(Br)c(c23)C1 (mixture of isomers) [Nr 15] | 40 | 0.45 | 
33 | COc1ccc2c3c1OC1C[C@@H](O)C=CC31CCC(N)C2 (mixture of isomers) [Nr 140] | 5.3 | > 100 | 
34 | COc1ccc2c3c1O[C@H]1C[C@@H](O)C=C[C@@]31CCN(CC(=O)N1CC3CC1CN3c1ccccc1)C2 (some centres unmarked) [Nr 143] | 8.4 | 2.4 | 
35 | COc1ccc2c3c1O[C@H]1C[C@@H](O)C=C[C@@]31CCN(C(=O)Nc1ccccc1C(F)(F)F)C2 [Nr 111] | 30 | > 100 | 
36 | COc1cc(Br)c2c3c1OC1C[C@@H](O)C=CC31CCN(CCO)C2 (mixture of isomers) [Nr 33] | 34 | 6.4 | 
37 | COc1cc2c(cc1OC)C(=O)C(CCCCN1CC[C@@]34C=C[C@H](O)C[C@@H]3Oc3c(OC)ccc(c34)C1)C2 (some centres unmarked) [Nr 167] |  |  | IC50 (Acetylcholinesterase [3]): 0.02 µM
